From ChEMBL document CHEMBL5126529, “Drug discovery of histone lysine demethylases (KDMs) inhibitors (progress from 2018 to present)” (Eur J Med Chem, 2022)

Assays:
[1] = biological target: Lysine-specific demethylase 6B (Homo sapiens, UniProt O15054); experiment: Binding affinity to KDM6B (unknown origin) assessed as inhibition constant
[2] = biological target: T1, Lysine-specific histone demethylase 1A (Homo sapiens, UniProt O60341); experiment: Inhibition of recombinant human KDM1A using fluorogenic substrate incubated for 30 mins followed by substrate addition measured after 10 mins by fluorescence based assay
[3] = biological target: T1, Lysine-specific histone demethylase 1A; experiment: Binding affinity to human KDM1A (172 to 833 residues) assessed as inhibition constant using Lys4-dimethylated H3 peptide as substrate incubated for 30 mins by enzymatic assay
[4] = biological target: Lysine-specific histone demethylase 2 (Homo sapiens, UniProt Q8NB78); experiment: Binding affinity to KDM1B (unknown origin) assessed as inhibition constant using Lys4-dimethylated H3 peptide as substrate incubated for 30 mins by enzymatic assay
Lysine-specific histone demethylase 2, sequence (Q8NB78 whole entry): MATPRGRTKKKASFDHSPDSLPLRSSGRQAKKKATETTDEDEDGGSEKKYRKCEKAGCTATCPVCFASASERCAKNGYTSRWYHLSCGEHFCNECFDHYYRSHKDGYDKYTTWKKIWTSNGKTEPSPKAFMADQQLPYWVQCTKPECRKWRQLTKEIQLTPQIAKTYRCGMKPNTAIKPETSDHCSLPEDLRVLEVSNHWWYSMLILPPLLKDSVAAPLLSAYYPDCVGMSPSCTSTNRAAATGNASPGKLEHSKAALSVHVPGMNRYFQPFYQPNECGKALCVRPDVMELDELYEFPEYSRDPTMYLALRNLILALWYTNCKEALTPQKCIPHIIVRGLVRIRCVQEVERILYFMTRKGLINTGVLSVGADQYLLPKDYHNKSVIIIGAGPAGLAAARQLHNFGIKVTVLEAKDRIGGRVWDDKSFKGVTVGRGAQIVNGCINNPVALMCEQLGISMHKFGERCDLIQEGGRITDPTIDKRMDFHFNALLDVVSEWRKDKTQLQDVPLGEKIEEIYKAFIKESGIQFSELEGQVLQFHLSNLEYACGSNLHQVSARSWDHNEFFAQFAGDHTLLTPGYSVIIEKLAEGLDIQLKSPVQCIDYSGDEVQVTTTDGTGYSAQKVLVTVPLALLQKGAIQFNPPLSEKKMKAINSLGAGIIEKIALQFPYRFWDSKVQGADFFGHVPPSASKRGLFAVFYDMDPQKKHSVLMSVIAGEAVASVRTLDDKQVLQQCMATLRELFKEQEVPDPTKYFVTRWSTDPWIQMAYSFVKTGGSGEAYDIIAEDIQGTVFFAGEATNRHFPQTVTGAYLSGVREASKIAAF

[5] = biological target: T2, Amine oxidase [flavin-containing] B (Homo sapiens, UniProt P27338); experiment: Binding affinity to human MAO-B assessed as inhibition constant using tyramine as substrate incubated for 30 mins by enzymatic assay
T2 sequence (P27338 whole entry): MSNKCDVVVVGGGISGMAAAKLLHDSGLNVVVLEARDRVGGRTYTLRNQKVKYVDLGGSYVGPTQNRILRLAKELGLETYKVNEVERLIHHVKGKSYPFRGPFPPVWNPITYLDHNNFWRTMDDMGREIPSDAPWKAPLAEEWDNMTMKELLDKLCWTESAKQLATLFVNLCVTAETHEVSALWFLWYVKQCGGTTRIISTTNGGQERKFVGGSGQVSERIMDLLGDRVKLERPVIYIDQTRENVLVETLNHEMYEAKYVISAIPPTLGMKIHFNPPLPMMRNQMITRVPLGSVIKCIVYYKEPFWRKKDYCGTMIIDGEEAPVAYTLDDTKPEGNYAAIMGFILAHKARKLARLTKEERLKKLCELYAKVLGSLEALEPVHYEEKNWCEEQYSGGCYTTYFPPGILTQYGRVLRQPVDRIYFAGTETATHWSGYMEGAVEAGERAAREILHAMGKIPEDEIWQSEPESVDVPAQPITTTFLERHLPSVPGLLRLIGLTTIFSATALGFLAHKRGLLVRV

[6] = biological target: T3, Amine oxidase [flavin-containing] A (Homo sapiens, UniProt P21397); experiment: Binding affinity to human MAO-A assessed as inhibition constant using tyramine as substrate incubated for 30 mins by enzymatic assay
T3 sequence (P21397 whole entry): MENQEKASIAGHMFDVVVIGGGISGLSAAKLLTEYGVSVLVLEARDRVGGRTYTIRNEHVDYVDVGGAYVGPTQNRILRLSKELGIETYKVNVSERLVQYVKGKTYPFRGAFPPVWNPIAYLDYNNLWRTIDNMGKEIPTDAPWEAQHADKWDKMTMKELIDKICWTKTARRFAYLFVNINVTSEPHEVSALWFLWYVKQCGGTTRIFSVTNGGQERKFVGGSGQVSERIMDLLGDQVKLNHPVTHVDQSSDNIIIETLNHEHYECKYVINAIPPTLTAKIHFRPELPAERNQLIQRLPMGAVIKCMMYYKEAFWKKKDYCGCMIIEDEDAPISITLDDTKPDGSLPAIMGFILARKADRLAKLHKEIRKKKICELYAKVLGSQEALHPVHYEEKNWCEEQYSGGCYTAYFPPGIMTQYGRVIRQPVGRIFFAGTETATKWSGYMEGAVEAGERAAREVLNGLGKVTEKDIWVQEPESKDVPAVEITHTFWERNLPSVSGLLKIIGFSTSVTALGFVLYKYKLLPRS

[7] = biological target: T1, Lysine-specific histone demethylase 1A; experiment: Inhibition of recombinant human KMD1A (172 to 852 residues) using Bio-H3K4me2 peptide as substrate incubated for 1 hr by Lance ultra TR-FRET assay
[8] = biological target: T2, Amine oxidase [flavin-containing] B; experiment: Inhibition of MAO-B (unknown origin) by luminescence based assay
[9] = biological target: T3, Amine oxidase [flavin-containing] A; experiment: Inhibition of MAO-A (unknown origin) by luminescence based assay
MAO-A [10] = biological target: T4, MAO-A (Homo sapiens, UniProt P21397); experiment: Inhibition of MAO-A (unknown origin) at 10 uM relative to control
T4 sequence (P21397 whole entry): T3 sequence (P21397 whole entry)

MAO-B [11] = biological target: T5, MAO-B (Homo sapiens, UniProt P27338); experiment: Inhibition of MAO-B (unknown origin) at 10 uM relative to control
T5 sequence (P27338 whole entry): T2 sequence (P27338 whole entry)

[12] = biological target: Lysine-specific demethylase 5C (Homo sapiens, UniProt P41229); experiment: Inhibition of N-terminal FLAG/His-tagged full-length human KDM5C (2 to 1560 residues) expressed in baculovirus infected Sf9 insect cells using peptide substrate at 10 uM incubated for 2 hrs by Alpha Screen assay relative to control
[13] = biological target: T1, Lysine-specific histone demethylase 1A; experiment: Inhibition of recombinant human KDM1A (158 to 852 residues) using H3K4Me2 peptide as substrate preincubated for 15 mins followed by substrate addition measured after 60 mins by AlphaLISA assay
P30-OHK = experiment: cells; details: Homo sapiens
MOLT-4 = experiment: cells; details: Homo sapiens
KE-37 = experiment: cells; details: Homo sapiens
SUP-B15 = experiment: cells; details: Homo sapiens
HAL-01 = experiment: cells; details: Homo sapiens
[14] = biological target: T3, Amine oxidase [flavin-containing] A; experiment: Inhibition of MAO-A (unknown origin) by luminometry
LC4-1 = experiment: cells; details: Homo sapiens
MAO-A [15] = biological target: T4, MAO-A; experiment: Inhibition of recombinant MAO-A (unknown origin) using luciferin substrate at 10 uM preincubated for 15 mins followed by substrate addition measured after 1 hr by luciferase based assay relative to control; details: probe luciferin substrate, time 75 min
MAO-B [16] = biological target: T5, MAO-B; experiment: Inhibition of recombinant MAO-B (unknown origin) using luciferin substrate at 10 uM preincubated for 15 mins followed by substrate addition measured after 1 hr by luciferase based assay relative to control; details: probe luciferin substrate, time 75 min
[17] = biological target: T1, Lysine-specific histone demethylase 1A
[18] = biological target: Probable JmjC domain-containing histone demethylation protein 2C (Homo sapiens, UniProt Q15652); experiment: Binding affinity to CM7 sensor chip immobilized partial-length JMJD1C (2274 to 2498 residues) (unknown origin) expressed in Escherichia coli assessed as dissociation constant incubated for 60 secs by SPR analysis
Probable JmjC domain-containing histone demethylation protein 2C, sequence (Q15652 whole entry, the tested form may be a part): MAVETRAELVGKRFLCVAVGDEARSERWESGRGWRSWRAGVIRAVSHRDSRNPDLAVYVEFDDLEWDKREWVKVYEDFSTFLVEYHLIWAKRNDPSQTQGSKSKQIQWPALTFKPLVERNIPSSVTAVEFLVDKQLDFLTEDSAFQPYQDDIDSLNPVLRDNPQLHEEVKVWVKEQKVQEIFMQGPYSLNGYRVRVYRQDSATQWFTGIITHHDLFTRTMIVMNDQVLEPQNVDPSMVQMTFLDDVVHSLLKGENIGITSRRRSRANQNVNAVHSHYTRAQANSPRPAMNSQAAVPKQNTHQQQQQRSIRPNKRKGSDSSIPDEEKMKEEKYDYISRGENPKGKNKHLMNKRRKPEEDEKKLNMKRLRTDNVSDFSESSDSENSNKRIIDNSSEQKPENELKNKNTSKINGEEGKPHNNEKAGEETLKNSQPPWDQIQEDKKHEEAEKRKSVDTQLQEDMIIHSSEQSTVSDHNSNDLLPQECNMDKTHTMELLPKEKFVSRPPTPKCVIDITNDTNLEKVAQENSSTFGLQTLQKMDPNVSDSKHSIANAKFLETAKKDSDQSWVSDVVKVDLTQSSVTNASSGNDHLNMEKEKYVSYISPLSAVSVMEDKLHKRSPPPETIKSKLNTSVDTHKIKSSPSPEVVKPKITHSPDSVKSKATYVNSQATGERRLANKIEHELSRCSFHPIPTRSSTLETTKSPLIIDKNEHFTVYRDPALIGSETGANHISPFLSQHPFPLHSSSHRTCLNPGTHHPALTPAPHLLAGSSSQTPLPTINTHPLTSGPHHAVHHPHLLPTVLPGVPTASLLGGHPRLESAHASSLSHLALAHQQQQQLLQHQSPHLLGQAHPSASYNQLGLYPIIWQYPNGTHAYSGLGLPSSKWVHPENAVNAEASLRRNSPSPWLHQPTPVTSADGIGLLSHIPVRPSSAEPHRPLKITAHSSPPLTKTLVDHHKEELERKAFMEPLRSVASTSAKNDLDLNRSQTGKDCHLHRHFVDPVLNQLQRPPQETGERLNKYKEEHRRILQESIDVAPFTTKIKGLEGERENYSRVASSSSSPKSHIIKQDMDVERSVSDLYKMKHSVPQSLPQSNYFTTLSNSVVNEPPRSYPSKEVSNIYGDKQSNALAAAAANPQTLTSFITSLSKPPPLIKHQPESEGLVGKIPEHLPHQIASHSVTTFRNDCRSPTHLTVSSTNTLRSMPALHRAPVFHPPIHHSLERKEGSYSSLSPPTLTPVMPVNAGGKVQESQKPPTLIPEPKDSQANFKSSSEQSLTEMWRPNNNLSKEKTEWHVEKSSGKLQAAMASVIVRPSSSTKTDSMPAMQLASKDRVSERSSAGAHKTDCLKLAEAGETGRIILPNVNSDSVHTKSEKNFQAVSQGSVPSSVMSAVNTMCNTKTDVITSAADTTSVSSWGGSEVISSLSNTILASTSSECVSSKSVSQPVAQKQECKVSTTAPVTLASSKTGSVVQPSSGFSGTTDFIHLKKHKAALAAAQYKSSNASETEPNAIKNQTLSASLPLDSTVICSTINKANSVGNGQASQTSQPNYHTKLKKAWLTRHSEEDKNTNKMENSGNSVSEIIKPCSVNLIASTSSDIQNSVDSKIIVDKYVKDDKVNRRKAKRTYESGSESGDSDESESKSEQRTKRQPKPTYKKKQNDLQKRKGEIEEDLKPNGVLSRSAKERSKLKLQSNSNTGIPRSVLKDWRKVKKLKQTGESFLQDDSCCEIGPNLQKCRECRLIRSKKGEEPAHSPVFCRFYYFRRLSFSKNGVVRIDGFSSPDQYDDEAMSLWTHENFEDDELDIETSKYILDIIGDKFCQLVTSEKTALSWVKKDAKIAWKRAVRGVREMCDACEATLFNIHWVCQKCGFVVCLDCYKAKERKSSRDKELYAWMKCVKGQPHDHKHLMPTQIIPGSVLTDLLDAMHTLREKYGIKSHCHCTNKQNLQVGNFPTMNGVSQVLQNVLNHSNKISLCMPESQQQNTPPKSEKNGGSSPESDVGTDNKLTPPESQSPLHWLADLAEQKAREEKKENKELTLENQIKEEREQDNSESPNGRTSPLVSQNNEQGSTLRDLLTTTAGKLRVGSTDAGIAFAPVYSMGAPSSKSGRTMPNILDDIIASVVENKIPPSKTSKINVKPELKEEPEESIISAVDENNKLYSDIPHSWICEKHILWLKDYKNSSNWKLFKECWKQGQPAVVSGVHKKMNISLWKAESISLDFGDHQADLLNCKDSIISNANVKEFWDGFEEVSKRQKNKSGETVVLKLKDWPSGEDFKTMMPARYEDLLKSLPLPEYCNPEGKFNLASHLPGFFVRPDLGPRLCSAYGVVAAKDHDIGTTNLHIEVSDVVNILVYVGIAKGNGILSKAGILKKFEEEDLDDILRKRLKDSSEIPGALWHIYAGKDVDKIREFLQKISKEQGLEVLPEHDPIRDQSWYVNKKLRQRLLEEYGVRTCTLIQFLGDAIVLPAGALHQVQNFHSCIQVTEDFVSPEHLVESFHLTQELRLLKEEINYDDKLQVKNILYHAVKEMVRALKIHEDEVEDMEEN

[19] = biological target: Lysine-specific demethylase 3B (Homo sapiens, UniProt Q7LBC6); experiment: Binding affinity to CM7 sensor chip immobilized full-length KDM3B (unknown origin) expressed in Sf9 insect cells assessed as dissociation constant incubated for 60 secs by SPR analysis
Lysine-specific demethylase 3B, sequence (Q7LBC6 whole entry): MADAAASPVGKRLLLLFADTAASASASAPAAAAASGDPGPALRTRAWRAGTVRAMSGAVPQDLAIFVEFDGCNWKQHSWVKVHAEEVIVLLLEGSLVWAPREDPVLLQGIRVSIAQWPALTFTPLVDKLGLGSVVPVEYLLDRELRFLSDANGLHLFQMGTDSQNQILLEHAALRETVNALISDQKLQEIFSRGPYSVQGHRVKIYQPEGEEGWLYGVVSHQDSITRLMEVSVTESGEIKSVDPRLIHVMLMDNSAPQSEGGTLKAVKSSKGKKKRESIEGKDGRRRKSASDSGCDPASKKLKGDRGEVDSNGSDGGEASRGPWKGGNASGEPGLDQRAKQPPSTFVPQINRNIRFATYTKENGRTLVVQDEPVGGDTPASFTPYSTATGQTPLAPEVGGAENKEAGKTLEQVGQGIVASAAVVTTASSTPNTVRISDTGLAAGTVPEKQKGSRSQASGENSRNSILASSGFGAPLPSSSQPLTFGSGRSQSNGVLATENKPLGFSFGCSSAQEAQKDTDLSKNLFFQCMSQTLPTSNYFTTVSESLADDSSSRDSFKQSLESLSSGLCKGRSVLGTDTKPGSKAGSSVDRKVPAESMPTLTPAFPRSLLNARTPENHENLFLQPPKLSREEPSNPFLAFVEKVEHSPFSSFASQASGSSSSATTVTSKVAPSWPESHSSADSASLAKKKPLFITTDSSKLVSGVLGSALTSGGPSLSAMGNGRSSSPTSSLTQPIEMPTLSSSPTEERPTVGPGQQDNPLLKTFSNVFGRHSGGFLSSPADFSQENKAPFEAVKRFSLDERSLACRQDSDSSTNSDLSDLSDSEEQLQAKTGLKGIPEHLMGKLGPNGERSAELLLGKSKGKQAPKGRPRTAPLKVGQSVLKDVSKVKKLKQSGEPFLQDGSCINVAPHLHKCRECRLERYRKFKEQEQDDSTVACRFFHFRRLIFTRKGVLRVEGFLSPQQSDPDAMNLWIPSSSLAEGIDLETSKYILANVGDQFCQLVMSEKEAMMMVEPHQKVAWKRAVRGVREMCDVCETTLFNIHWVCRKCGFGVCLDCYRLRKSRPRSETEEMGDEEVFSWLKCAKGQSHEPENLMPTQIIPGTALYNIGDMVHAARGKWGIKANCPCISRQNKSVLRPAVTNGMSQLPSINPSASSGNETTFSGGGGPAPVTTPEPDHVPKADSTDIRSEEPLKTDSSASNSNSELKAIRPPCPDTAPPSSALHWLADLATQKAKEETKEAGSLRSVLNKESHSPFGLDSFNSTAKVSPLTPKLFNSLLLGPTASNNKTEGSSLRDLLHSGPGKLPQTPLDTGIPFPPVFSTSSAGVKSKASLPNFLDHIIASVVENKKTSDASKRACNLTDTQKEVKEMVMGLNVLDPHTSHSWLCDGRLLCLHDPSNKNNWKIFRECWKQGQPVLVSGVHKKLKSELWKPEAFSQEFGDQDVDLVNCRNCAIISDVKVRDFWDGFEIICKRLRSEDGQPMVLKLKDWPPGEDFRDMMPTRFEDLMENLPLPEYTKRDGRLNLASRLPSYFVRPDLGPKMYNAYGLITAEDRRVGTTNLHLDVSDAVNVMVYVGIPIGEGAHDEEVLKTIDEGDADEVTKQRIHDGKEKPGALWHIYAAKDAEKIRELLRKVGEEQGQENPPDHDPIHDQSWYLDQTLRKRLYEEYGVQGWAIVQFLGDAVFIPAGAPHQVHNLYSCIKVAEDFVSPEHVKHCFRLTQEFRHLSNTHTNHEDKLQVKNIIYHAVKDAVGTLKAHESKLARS

[20] = biological target: T1, Lysine-specific histone demethylase 1A; experiment: Inhibition of KDM1A (unknown origin) by fluorescence based assay
MAO-B [21] = biological target: T5, MAO-B; experiment: Inhibition of recombinant MAO-B (unknown origin) using luciferin substrate at 100 uM preincubated for 15 mins followed by substrate addition measured after 1 hr by luciferase based assay relative to control; details: probe luciferin substrate, time 75 min
MAO-A [22] = biological target: T4, MAO-A; experiment: Inhibition of recombinant MAO-A (unknown origin) using luciferin substrate at 100 uM preincubated for 15 mins followed by substrate addition measured after 1 hr by luciferase based assay relative to control; details: probe luciferin substrate, time 75 min
[23] = biological target: Lysine-specific demethylase 4A (Homo sapiens) (UniProt O75164); experiment: Inhibition of recombinant KDM4A (unknown origin) assessed as residual activity using H3K9me3 peptide as substrate incubated for 60 mins by fluorescence based assay relative to control
[24] = biological target: T2, Amine oxidase [flavin-containing] B
[25] = biological target: T1, Lysine-specific histone demethylase 1A; remark: listed apart in the source
MAO-A [26] = biological target: T4, MAO-A; experiment: Inhibition of recombinant MAO-A (unknown origin) at 10 uM by luminometry relative to control
MAO-B [27] = biological target: T5, MAO-B; experiment: Inhibition of recombinant MAO-B (unknown origin) at 10 uM by luminometry relative to control
MAO-A [28] = biological target: T4, MAO-A; experiment: Inhibition of MAO-A (unknown origin) at 100 uM relative to control
MAO-B [29] = biological target: T5, MAO-B; experiment: Inhibition of MAO-B (unknown origin) at 100 uM relative to control

## O=C(O)[C@H](O)Cc1ccc(O)c(O)c1
[1]
  Ki: 7.11 µM

## Cn1c(C(=O)Nc2cccc3c2N(Cc2ccc(OC4CCNCC4)cc2)CCC3)cc2ccccc21
[2]
  IC50: 0.05 µM

## CN1CCN(C(=O)NC2CC2c2cc(F)cc(F)c2OCc2ccccc2)CC1 (centres undefined)
[3]
  Ki: 0.37 µM
[4]
  Ki: > 250 µM
[5]
  Ki: > 250 µM
[6]
  Ki: > 250 µM

## CC1(C)C(N[C@@H]2C[C@H]2c2ccccc2)CCC1N[C@@H]1C[C@H]1c1ccccc1 (some centres undefined)
[7]
  IC50: 4.8 µM
[8]
  IC50: 9.41 µM
[9]
  IC50: 0.00729 µM

## COc1ccc(-c2coc3cc(O)cc(O)c3c2=O)cc1 [BIOCHANIN]
MAO-A [10]
  inhibition at 10 µM: 23.5%
MAO-B [11]
  inhibition at 10 µM: 36.8%

## COC(=O)c1ccnc(-c2cn(CCN(C)CCCCCCCCCCOc3cccc4c3C(=O)N(C3CCC(=O)NC3=O)C4=O)nn2)c1 (centres undefined)
[12]
  inhibition: 14%

## COCc1cccc(NC(=O)c2cc3ccccc3n2C)c1COc1ccc(OCC2CCNCC2)cc1
[13]
  IC50: 4 µM

## CC(C)(C)OC(=O)N1CCN(C(=S)SCC(=O)Nc2ccc(C(=O)/C=C/c3ccccc3F)cc2)CC1
P30-OHK
  IC50: 3.85 µM
MOLT-4
  IC50: 0.87 µM
KE-37
  IC50: 3.64 µM
SUP-B15
  IC50: 1.87 µM
HAL-01
  IC50: 1.1 µM
[14]
  IC50: 20 µM
LC4-1
  IC50: 2.73 µM

## Oc1ccc(CC2NCCc3cc(O)c(O)cc32)cc1 (centres undefined) [HIGENAMINE]
MAO-A [15]
  inhibition at 1 h, 10 µM: < 15%
MAO-B [16]
  inhibition at 1 h, 10 µM: < 15%

## CCOC(=O)C(c1cc(OC)c(OC)cc1O)N1CCOCC1 (centres undefined)
[17]
  IC50: 0.296 µM

## CC(=O)Nc1ccc(S(=O)(=O)N[C@H]2CO[C@H]3[C@@H]2OC[C@@H]3Nc2nccc(-c3cccc(F)c3)n2)cc1
[18]
  Kd: 26.7 µM
[19]
  Kd: 16.3 µM

## COc1cc2c(cc1OC)-c1c(C)c3ccc(OC)c(OC)c3c[n+]1CC2 [DEHYDROCORYDALINE]
[20]
  IC50: 2.44 µM

## O=c1c(-c2ccc(O)cc2)coc2c([C@@H]3O[C@H](CO[C@@H]4OC[C@@H](O)[C@H](O)[C@H]4O)[C@@H](O)[C@H](O)[C@H]3O)c(O)ccc12
[1]
  Ki: 7.46 µM

## CC(=O)Nc1ccc(S(=O)(=O)N[C@H]2CO[C@H]3[C@@H]2OC[C@@H]3Nc2nccc(-c3cccc(C(C)(C)C)c3)n2)cc1
[18]
  Kd: 8.06 µM
[19]
  Kd: 7.79 µM

## Cc1ccc(-c2nc(SCc3cn(CC(=O)NC(=O)Nc4ccccn4)nn3)nc(Nc3cccc(C(F)(F)F)c3)c2C#N)cc1
MAO-B [21]
  inhibition at 1 h, 100 µM: < 5%
MAO-A [22]
  inhibition at 1 h, 100 µM: < 5%

## CC(C)(C)OC(=O)NCc1cc2ccccc2[te]1
[23]
  Activity: 1.79%

## O=C(c1ccc(OCCN2CCCCC2)cc1)c1c(-c2ccc(O)cc2)sc2cc(O)ccc12 [RALOXIFENE]
[24]
  IC50: > 200 µM

## CC(=O)Nc1ccc(S(=O)(=O)N[C@H]2CO[C@H]3[C@@H]2OC[C@@H]3Nc2nccc(-c3ccccc3)n2)cc1
[18]
  Kd: 2.7 µM
[19]
  Kd: 0.13 µM

## O=C(/C=C/c1ccc(O)c2c1[C@H](C(=O)OC(Cc1ccc(O)c(O)c1)C(=O)O)[C@@H](c1ccc(O)c(O)c1)O2)O[C@H](Cc1ccc(O)c(O)c1)C(=O)O (some centres undefined)
[20]
  IC50: 0.11 µM

## CSCC[C@H](NC(=O)[C@@H](NC(=O)[C@H](CCCNC(=N)N)NC(=O)[C@H](C)N)[C@@H](C)O)C(=O)N[C@@H](CCC(N)=O)C(=O)N[C@H](C(=O)N[C@@H](C)C(=O)N[C@@H](CCCNC(=N)N)C(=O)N[C@@H](CCCCN)C(=O)N[C@@H](CO)C(=O)N[C@H](C(=O)O)[C@@H](C)O)[C@@H](C)O
[25]
  Kd: 140 µM

## COc1cc2c(cc1OC)-c1cc3ccc4c(c3c[n+]1CC2)OCO4
MAO-A [26]
  inhibition at 10 µM: 70%
MAO-B [27]
  inhibition at 10 µM: 40%

## C=C[C@]1(C)C[C@@H]2OC(=O)C(C)=C2C[C@H]1C(=C)C [ISOGERMAFURENOLIDE]
[20]
  IC50: 3.97 µM

## CCCC(=O)NC(c1ccc(N(CC)CC)cc1)c1cc(Cl)c2cccnc2c1O (centres undefined)
[17]
  IC50: 0.0039 µM

## NC1CC1c1ccc(NC(=O)c2ccc(-c3ccccc3)cc2)cc1 (centres undefined)
[17]
  IC50: 0.051 µM
MAO-A [28]
  inhibition at 100 µM: 2%
MAO-B [29]
  inhibition at 100 µM: 8%
